Here are results for four compounds from patent US20100260753A1, “AMINOFLAVONE (NSC 686288) AND COMBINATIONS THEREOF FOR TREATING BREAST CANCER” (priority 2007, published 2010).

Structures are written as SMILES. Several values for one entry are separate records, joined by “and”; a condition that tells them apart may be missing. Identical values can stand only once. Like-named read-outs stand apart in the source and are kept apart here.

As usually defined, the IC50 is the concentration needed to halve the response being measured.

For one assay, the system named is MCF-7 cells. Put plainly: aminoflavone combination with estrogen receptor antagonists in MCF-7 cells. Type of assay: cell-based, human. The settings on record: administered with aminoflavone (FIG. 9). Here is the method:
To examine the role of estrogen receptor in aminoflavone sensitivity, the inventors combined aminoflavone with a fixed concentration (100 nM) of the “pure” antiestrogen Faslodex® in MCF-7 cells.

Assay [1] relates to MCF-7 TAM1. Briefly: MTT proliferation assay, MCF-7 TAM1. Format: cell-based, human. The method, then:
(§1) FIG. 2B depicts an MTT assay (10 days) comparing the sensitivity of parental MCF-7 to aminoflavone and the tamoxifen resistant subclone MCF-7TAM1 to 4-OH tamoxifen (TAM) and aminoflavone respectively. Cells were grown in medium with charcoal-stripped fetal calf serum supplemented with 10 nM E2, estrogen. MCF-7 cells that have become resistant to tamoxifen by either selection (MCF-7TAM1, FIG. 2B), or genetic manipulation (MCF-7Her2-18, Table 1), remain sensitive to aminoflavone. An understanding of how MCF-7 DF203r and MDA-MB-231 differ from MCF-7 in the dynamics and distribution of their AhR and AhR associated signaling complexes may allow the clarification of the basis for aminoflavone sensitivity and resistance.
(§2) MCF-7Her2-18 is a variant of MCF-7 over-expressing the Her2/neu oncoprotein. As a result, it is resistant to Herceptin® (Shou et al. 2004 “Mechanisms of tamoxifen resistance: increased estrogen receptor-HER2/neu cross-talk in ER/HER2-positive breast cancer.” J Nat Cancer Inst 96: 926-35) and tamoxifen. […] (1999 “A multidrug resistance transporter from human MCF-7 breast cancer cells.” Proc Natl Acad Sci USA. 95: 15665-70.) The IC50s (16-20 nM) and IC100s of aminoflavone (˜300 nM) were nearly identical in MCF-7Her2-18 and parental MCF-7 cells (See Table 1, below). In MCF-7TAM1 cells, which were serum starved and then treated for 10 days with E2 alone, 4-OH-tamoxifen plus E2, and aminoflavone plus E2, the concentration of 4-OH-tamoxifen causing growth inhibition was >10 μM.
(§3) Table 1 below summarizes the results of the MTT (methyl tetrazolium) tests that were performed to assay cell growth in a panel breast cell lines and their characteristics. Both, MCF-7Her2-18 and MCF-7TAM1 express estrogen receptor. […] The ER(−) cells MDA-MB-231 and MCF10A with nuclear AhR are several log-fold less sensitive to aminoflavone (Table 1, FIG. 4). These observations confirm that aminoflavone is valuable in patients who have lost clinical benefit from estrogen receptor antagonists. […]
(In general: Tetrazolium dyes change colour on reduction, which living cells bring about.)

The test system of assay [2] is MCF10A. Briefly: MTT proliferation assay, MCF10A. Type of assay: cell-based, human. Here is the method:
(§4) Table 1 below summarizes the results of the MTT (methyl tetrazolium) tests that were performed to assay cell growth in a panel breast cell lines and their characteristics. Both, MCF-7Her2-18 and MCF-7TAM1 express estrogen receptor. […] The ER(−) cells MDA-MB-231 and MCF10A with nuclear AhR are several log-fold less sensitive to aminoflavone (Table 1, FIG. 4). These observations confirm that aminoflavone is valuable in patients who have lost clinical benefit from estrogen receptor antagonists.
(§5) The inhibitory concentrations 50% (IC50) and 100% (IC100) listed in Table 1 represent the mean of three independent experiments. The estrogen receptor and AhR assays were performed three times.

The subject of a further assay is MCF-7 xenografts. The settings on record: 120 mg/kg intraperitoneally, 5 days per week; cited from earlier work.
Assay [3] deals with MCF10A. Put plainly: γ-H2AX foci induction, MCF10A. Format: cell-based, human.
For the next assay, the system named is LTLC. Briefly: growth inhibition in hormone refractory LTLC (FIGS. 5A and 5B). Type of assay: cell-based, human. The settings on record: LTLC hormone refractory cell line.
Assay [4] relates to MCF-7 HER2-18. Briefly: γ-H2AX foci induction, MCF-7 HER2-18. Type of assay: cell-based, human.
For assay [5], the system named is T47D. Briefly: MTT proliferation assay, T47D. Format: cell-based, human. The method, then: (§6) FIG. 2A depicts in vitro MTT proliferation assay (5 days) showing aminoflavone activity in ER(+) and ER(−) breast cancer cell lines.
as §4, §5

Assay [6] concerns MCF-7. Briefly: γ-H2AX foci induction, MCF-7. Type of assay: cell-based, human. The settings on record: IC50 concentrations, 24 hrs after exposure. From the text: (§7) Previous studies have reported that the occurrence of foci of phosphorylated γ-H2AX is indicative of the cellular response to aminoflavone in MCF-7 cells (Meng et al.). γ-H2AX phosphorylation is an early indicator of DNA double strand breaks and thus, induction of DNA-damage response in cells.
(§8) Phosphorylation of the histone variant γ-H2AX is a rapid and sensitive response to DNA double strand breaks. Aminoflavone induces γ-H2AX foci in drug sensitive MCF-7 and MCF-7TAM1 cells at IC50 concentrations 24 hrs after exposure, but not in aminoflavone resistant MDA-MB-231 breast cancer cells. γ-H2AX was detected by using a FITC-labeled anti-mouse secondary antibody (green) and its nuclear expression is shown by co-localization with the nuclear stain DAPI (blue). AhR was detected with a TRITC-labeled (red) secondary antibody.

The test system of assay [7] is MCF-7 HER2-18. Put plainly: MTT proliferation assay, MCF-7 HER2-18. Format: cell-based, human. The settings on record: mean of three independent experiments. Here is the method: as §1, §2, §3
The test system of another assay is MCF-7DF203r. Put plainly: MTT proliferation assay (5 days), MCF-7DF203r. The settings on record: MTT 5 days; MCF-7 subclone with acquired resistance to benzothiazoles (DF203). Format: cell-based, human.
Description: (Loaiza-Pérez et al.; Leong et al.) Isogenic subclones of MCF-7 resistant to the BZ DF203F (MCF-7DF203r), tamoxifen (MCF-7TAM1, MCF-7Her2-18) and Herceptin® (MCF-7Her2-18) were included.
as §6

Another assay concerns NCI 60 cell line. The settings on record: "resistant" cell lines; cited from earlier work.
For assay [8], the system named is MCF-7. Put plainly: MTT proliferation assay, MCF-7. Format: cell-based, human. Here is the method:
as §6, §1, §4, §5

Another assay has as its system ER+MDA-MB-231 cells. Put plainly: aminoflavone sensitivity of MDA-MB-231 stably transfected with human estrogen receptor-α. Type of assay: cell-based.
The subject of assay [9] is MDA-MB-231. Briefly: γ-H2AX foci induction, MDA-MB-231. Type of assay: cell-based, human.
Description: as §7, §8

A further assay deals with Hs578T. Put plainly: aminoflavone sensitivity of Hs578T (FIGS. 6A and 6B). Format: cell-based, human.
In assay [10] the test system is MCF-7 TAM1. Briefly: γ-H2AX foci induction, MCF-7 TAM1. Format: cell-based, human. The settings on record: IC50 concentrations, 24 hrs after exposure.
Description: as §7, §8

Assay [11] relates to T47D. Put plainly: γ-H2AX foci induction, T47D. Format: cell-based, human.
Assay [12] deals with MDA-MB-231. Briefly: MTT proliferation assay, MDA-MB-231. Type of assay: cell-based, human. The method, then:
as §6, §4, §5

The mark [13] stands for this setting: MCF-7, MTT, mean of three independent experiments.

As for `CC/C(=C(\c1ccccc1)c1ccc(OCCN(C)C)cc1)c1ccccc1` [tamoxifen], the “cell growth inhibition compared to aminoflavone alone” value with MCF-7 cells is recorded as “inhibited more greatly”.
Take `CC/C(=C(\c1ccc(O)cc1)c1ccc(OCCN(C)C)cc1)c1ccccc1` [4-OH-tamoxifen, reference compound]: in the assay on MCF-7 TAM1 [1] (MCF-7TAM1, serum starved, 10 days, plus E2), the “concentration causing growth inhibition” value was greater than 10 µM.
Take `C[C@]12CC[C@@H]3c4ccc(O)cc4C[C@@H](CCCCCCCCC[S+]([O-])CCCC(F)(F)C(F)(F)F)[C@H]3[C@@H]1CC[C@@H]2O` (stereo partly drawn) [Faslodex®, fulvestrant]: the “cell growth inhibition compared to aminoflavone alone” value in the assay on MCF-7 cells was “inhibited more greatly”.
Turning to `Cc1c(F)c(N)c2c(=O)cc(-c3ccc(N)c(F)c3)oc2c1F` [aminoflavone], the IC50 in the assay on MCF10A [2] is 3000 nM; in the assay with MCF10A [2] (Homo sapiens, MCF-10A), 3000 to 25000 nM; in the assay with T47D [5] (Homo sapiens, MTT), 14 nM; in the assay with MCF-7 HER2-18 [7] (Homo sapiens) it was 16 to 20 nM; with MCF-7 HER2-18 [7] it was 20 nM; with MCF-7 TAM1 [1] (Homo sapiens, MCF7:TAM1, 240 h, MCF-7 TAM1, MTT 10 days, plus E2) it was 550 nM. The IC50 was 16 to 20 nM in the assay with MCF-7 [8] (Homo sapiens, MCF7, MCF-7, MTT, mean of three independent experiments); 16 nM in the assay on MCF-7 [8] (setting [13]); 5000 nM with ER+MDA-MB-231 cells (MDA-MB-231 stably transfected with human estrogen receptor-α). In addition, the IC100 in the assay with MCF10A [2] is 9 µM; with T47D [5] (MTT), 20 nM; in the assay with MCF-7 HER2-18 [7], ~300 nM and 375 nM; with MCF-7 TAM1 [1] (MCF-7 TAM1, MTT), 2 µM; in the assay on MCF-7 [8] (setting [13]) it was roughly 300 nM; in the assay on MDA-MB-231 [12] (MTT), greater than 100 µM. In addition, the tumor growth inhibition in the assay with MCF-7 xenografts is 85 % of control; with LTLC, “inhibits tumor growth”. The “γ-H2AX Focl” value in the assay with MCF10A [3] was “no”; in the assay on MCF-7 HER2-18 [4] it was “yes”; with MCF-7 [6], “induces and yes”; with MDA-MB-231 [9] it was “no”; in the assay on MCF-7 TAM1 [10] it was “induces and yes”; in the assay on T47D [11] it was “yes”. The sensitivity to aminoflavone result was “pronounced susceptibility” with T47D [5] (MTT 5 days (FIG. 2A)); “essentially completely cross-resistant” in the assay with MCF-7DF203r; “pronounced susceptibility” with MCF-7 [8] (MCF-7, MTT 5 days (FIG. 2A)); “resistant” in the assay on Hs578T; “refractoriness” with MDA-MB-231 [12] (MTT 5 days (FIG. 2A)). The “total growth inhibition (TGI)” value in the assay on NCI 60 cell line is no less than 10000 nM. In addition, the “sensitivity compared to parental and vector transfected cells” value in the assay with ER+MDA-MB-231 cells (ER+MDA-MB-231 vs parental and vector transfected cells) came out at 5 times.
